Legend:
[1] = biological target: Beta-3 adrenergic receptor (Homo sapiens) (UniProt P13945); conditions: Compound concentration 10.0 uM
[2] = system: Tyrosine-protein kinase ABL1 (Homo sapiens), P00519 [H396P]; conditions: Compound concentration 1000.0 nM
[3] = biological target: Vascular endothelial growth factor receptor 1 (Homo sapiens) (UniProt P17948); conditions: Compound concentration 1000.0 nM
[4] = biological target: Tyrosine-protein kinase BTK (Homo sapiens) (UniProt Q06187); conditions: Compound concentration 1000.0 nM
Tyrosine-protein kinase BTK (Homo sapiens), sequence (Q06187 whole entry): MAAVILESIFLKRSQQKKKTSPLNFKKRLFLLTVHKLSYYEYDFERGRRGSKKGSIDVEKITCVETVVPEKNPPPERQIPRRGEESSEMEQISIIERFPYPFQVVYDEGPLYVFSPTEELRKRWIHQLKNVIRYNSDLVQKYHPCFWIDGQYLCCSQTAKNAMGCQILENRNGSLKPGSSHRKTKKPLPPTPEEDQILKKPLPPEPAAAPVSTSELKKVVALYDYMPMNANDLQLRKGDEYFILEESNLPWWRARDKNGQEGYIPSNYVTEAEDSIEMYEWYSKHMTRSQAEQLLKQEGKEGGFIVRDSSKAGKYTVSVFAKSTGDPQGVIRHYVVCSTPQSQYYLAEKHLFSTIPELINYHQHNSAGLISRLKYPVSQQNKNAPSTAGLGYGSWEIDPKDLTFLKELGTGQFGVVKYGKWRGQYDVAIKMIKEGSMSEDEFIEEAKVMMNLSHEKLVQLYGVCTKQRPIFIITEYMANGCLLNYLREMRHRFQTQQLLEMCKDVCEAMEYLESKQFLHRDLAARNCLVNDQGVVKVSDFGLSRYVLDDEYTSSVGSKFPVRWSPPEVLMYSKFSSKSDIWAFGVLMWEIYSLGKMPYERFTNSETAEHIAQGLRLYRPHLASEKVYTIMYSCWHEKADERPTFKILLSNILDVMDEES

[5] = system: Epidermal growth factor receptor (Homo sapiens), P00533 [T790M]; conditions: Compound concentration 1000.0 nM
[6] = system: Epidermal growth factor receptor (Homo sapiens), P00533 [UNDEFINED MUTATION]; conditions: Compound concentration 1000.0 nM
[7] = biological target: Angiopoietin-1 receptor (Homo sapiens) (UniProt Q02763); conditions: Compound concentration 1000.0 nM
[8] = biological target: Serine/threonine-protein kinase PAK 2 (Homo sapiens) (UniProt Q13177); conditions: Compound concentration 1000.0 nM
[9] = biological target: Mast/stem cell growth factor receptor Kit (Homo sapiens) (UniProt P10721); conditions: Compound concentration 1000.0 nM
[10] = biological target: Receptor-interacting serine/threonine-protein kinase 2 (Homo sapiens) (UniProt O43353); conditions: Compound concentration 1000.0 nM
[11] = biological target: Phosphatidylinositol 3-kinase C2 domain-containing subunit gamma (Homo sapiens) (UniProt O75747); conditions: Compound concentration 1000.0 nM
[12] = biological target: Serine/threonine-protein kinase 26 (Homo sapiens) (UniProt Q9P289); conditions: Compound concentration 1000.0 nM
[13] = biological target: Calcium-dependent protein kinase 1 (Plasmodium falciparum) (UniProt P62344); conditions: Compound concentration 1000.0 nM
[14] = biological target: Atypical kinase COQ8B, mitochondrial (Homo sapiens) (UniProt Q96D53); conditions: Compound concentration 1000.0 nM
[15] = biological target: 5'-AMP-activated protein kinase catalytic subunit alpha-1 (Homo sapiens) (UniProt Q13131); conditions: Compound concentration 1000.0 nM
5'-AMP-activated protein kinase catalytic subunit alpha-1 (Homo sapiens), sequence (Q13131 whole entry, looked up): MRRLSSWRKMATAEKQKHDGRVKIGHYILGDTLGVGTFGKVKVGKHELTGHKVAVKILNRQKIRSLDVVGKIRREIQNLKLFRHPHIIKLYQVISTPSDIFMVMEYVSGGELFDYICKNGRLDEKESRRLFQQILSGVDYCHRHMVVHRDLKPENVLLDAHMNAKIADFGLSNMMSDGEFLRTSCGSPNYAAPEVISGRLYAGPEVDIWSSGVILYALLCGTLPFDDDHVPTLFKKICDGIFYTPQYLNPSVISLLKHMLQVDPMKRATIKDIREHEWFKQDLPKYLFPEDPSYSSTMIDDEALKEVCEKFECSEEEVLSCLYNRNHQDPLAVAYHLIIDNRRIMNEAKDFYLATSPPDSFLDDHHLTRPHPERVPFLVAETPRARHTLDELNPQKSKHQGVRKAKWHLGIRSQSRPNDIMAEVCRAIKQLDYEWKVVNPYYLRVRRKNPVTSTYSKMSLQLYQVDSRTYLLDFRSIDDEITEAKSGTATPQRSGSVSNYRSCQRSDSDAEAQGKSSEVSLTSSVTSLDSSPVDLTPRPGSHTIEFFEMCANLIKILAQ

[16] = biological target: Calcium/calmodulin-dependent protein kinase type 1G (Homo sapiens) (UniProt Q96NX5); conditions: Compound concentration 1000.0 nM
[17] = biological target: Protein kinase C delta type (Homo sapiens) (UniProt Q05655); conditions: Compound concentration 1000.0 nM
[18] = biological target: Serine/threonine-protein kinase tousled-like 1 (Homo sapiens) (UniProt Q9UKI8); conditions: Compound concentration 1000.0 nM
[19] = biological target: Muscarinic acetylcholine receptor M5 (Homo sapiens) (UniProt P08912); conditions: Compound concentration 10.0 uM
[20] = biological target: Dual specificity mitogen-activated protein kinase kinase 4 (Homo sapiens) (UniProt P45985); conditions: Compound concentration 1000.0 nM
Dual specificity mitogen-activated protein kinase kinase 4 (Homo sapiens), sequence (P45985 whole entry): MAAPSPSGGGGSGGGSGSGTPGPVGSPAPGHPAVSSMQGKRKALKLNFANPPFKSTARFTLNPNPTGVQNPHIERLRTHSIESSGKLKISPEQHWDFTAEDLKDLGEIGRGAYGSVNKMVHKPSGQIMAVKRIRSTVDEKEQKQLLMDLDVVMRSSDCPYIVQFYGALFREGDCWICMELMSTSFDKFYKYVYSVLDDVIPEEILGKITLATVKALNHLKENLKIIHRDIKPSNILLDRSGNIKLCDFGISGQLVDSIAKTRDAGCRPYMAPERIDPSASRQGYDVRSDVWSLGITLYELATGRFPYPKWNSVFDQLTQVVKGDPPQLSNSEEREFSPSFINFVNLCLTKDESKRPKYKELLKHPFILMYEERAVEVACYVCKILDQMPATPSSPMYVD

[21] = biological target: Myosin light chain kinase (Homo sapiens) (UniProt Q32MK0); conditions: Compound concentration 1000.0 nM
[22] = biological target: Casein kinase I isoform gamma-3 (Homo sapiens) (UniProt Q9Y6M4); conditions: Compound concentration 1000.0 nM
[23] = biological target: Ribosomal protein S6 kinase alpha-3 (Homo sapiens) (UniProt P51812); conditions: Compound concentration 1000.0 nM
[24] = biological target: Tyrosine-protein kinase JAK2 (Homo sapiens) (UniProt O60674); conditions: Compound concentration 1000.0 nM
Tyrosine-protein kinase JAK2 (Homo sapiens), sequence (O60674 whole entry): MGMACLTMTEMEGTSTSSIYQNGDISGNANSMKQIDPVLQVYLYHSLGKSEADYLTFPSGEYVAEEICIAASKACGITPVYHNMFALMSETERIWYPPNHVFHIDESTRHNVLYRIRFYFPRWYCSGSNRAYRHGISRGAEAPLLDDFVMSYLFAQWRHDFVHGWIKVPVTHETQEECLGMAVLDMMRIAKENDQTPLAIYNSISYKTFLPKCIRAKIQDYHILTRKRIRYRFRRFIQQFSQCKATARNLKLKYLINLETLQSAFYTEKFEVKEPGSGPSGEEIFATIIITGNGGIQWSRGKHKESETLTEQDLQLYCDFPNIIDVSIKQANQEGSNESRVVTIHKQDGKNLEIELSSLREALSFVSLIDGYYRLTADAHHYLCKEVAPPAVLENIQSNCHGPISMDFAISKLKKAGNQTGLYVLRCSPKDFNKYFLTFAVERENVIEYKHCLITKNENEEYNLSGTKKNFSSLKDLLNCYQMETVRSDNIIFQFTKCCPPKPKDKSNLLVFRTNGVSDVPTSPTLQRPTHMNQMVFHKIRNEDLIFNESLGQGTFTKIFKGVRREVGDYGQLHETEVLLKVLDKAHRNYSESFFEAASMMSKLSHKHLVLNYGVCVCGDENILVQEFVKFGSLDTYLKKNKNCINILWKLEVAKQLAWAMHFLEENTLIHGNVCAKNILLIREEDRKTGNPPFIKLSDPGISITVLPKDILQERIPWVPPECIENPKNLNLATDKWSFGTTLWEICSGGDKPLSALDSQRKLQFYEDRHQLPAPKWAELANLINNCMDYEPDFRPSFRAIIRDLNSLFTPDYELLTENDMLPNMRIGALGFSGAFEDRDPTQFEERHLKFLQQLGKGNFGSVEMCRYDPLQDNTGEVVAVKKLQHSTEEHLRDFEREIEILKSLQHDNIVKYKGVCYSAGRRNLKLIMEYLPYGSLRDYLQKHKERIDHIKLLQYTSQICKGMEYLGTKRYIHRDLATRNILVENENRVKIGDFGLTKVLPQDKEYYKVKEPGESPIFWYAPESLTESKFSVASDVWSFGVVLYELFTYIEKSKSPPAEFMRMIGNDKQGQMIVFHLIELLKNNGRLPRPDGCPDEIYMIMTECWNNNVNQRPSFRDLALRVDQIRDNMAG

[25] = system: Epidermal growth factor receptor (Homo sapiens), P00533 [G719S]; conditions: Compound concentration 1000.0 nM
[26] = biological target: 5-hydroxytryptamine receptor 2B (Homo sapiens, UniProt P41595); conditions: Compound concentration 10.0 uM
[27] = biological target: Histamine H3 receptor (Homo sapiens) (UniProt Q9Y5N1); conditions: Compound concentration 10.0 uM
Histamine H3 receptor (Homo sapiens), sequence (Q9Y5N1 whole entry): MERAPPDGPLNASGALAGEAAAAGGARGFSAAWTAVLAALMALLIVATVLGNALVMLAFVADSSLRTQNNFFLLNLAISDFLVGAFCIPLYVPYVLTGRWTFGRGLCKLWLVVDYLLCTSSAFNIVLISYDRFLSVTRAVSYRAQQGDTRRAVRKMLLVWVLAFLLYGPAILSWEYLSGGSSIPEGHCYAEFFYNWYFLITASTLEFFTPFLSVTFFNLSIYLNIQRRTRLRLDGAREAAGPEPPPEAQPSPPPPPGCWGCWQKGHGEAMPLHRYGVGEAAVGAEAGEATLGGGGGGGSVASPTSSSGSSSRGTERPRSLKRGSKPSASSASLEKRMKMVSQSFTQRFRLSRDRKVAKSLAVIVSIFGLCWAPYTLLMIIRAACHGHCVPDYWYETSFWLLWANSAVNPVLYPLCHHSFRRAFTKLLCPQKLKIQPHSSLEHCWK

[28] = biological target: Peripheral plasma membrane protein CASK (Homo sapiens) (UniProt O14936); conditions: Compound concentration 1000.0 nM
[29] = biological target: Tyrosine-protein kinase receptor Tie-1 (Homo sapiens) (UniProt P35590); conditions: Compound concentration 1000.0 nM
[30] = biological target: Serine/threonine-protein kinase Nek5 (Homo sapiens) (UniProt Q6P3R8); conditions: Compound concentration 1000.0 nM
[31] = biological target: Mitogen-activated protein kinase kinase kinase 12 (Homo sapiens) (UniProt Q12852); conditions: Compound concentration 1000.0 nM
[32] = biological target: Mitogen-activated protein kinase kinase kinase 9 (Homo sapiens) (UniProt P80192); conditions: Compound concentration 1000.0 nM
[33] = biological target: Homeodomain-interacting protein kinase 2 (Homo sapiens) (UniProt Q9H2X6); conditions: Compound concentration 1000.0 nM
[34] = system: ALK tyrosine kinase receptor (Homo sapiens), Q9UM73 [L1196M]; conditions: Compound concentration 1000.0 nM
[35] = biological target: Mitogen-activated protein kinase kinase kinase 3 (Homo sapiens) (UniProt Q99759); conditions: Compound concentration 1000.0 nM
Mitogen-activated protein kinase kinase kinase 3 (Homo sapiens), sequence (Q99759 whole entry): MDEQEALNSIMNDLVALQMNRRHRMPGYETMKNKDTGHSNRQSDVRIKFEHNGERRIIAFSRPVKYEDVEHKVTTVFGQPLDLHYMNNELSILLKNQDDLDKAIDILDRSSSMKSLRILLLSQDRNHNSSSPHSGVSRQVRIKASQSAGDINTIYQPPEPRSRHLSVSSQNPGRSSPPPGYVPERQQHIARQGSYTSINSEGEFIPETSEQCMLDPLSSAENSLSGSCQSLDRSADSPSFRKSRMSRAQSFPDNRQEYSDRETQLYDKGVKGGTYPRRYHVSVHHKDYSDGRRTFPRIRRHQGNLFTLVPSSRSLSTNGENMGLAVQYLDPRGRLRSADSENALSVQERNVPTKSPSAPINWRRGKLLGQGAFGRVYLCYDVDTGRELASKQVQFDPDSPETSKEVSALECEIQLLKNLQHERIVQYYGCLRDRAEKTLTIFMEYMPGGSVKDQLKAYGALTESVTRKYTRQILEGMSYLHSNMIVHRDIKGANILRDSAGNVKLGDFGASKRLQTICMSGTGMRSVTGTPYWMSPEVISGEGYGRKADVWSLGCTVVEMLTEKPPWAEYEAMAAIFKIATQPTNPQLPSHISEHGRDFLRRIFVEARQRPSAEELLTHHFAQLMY

[36] = biological target: Fibroblast growth factor receptor 2 (Homo sapiens) (UniProt P21802); conditions: Compound concentration 1000.0 nM
[37] = biological target: Tyrosine-protein kinase Lck (Homo sapiens) (UniProt P06239); conditions: Compound concentration 1000.0 nM
[38] = biological target: Rhodopsin kinase GRK1 (Homo sapiens) (UniProt Q15835); conditions: Compound concentration 1000.0 nM
[39] = system: Proto-oncogene tyrosine-protein kinase receptor Ret (Homo sapiens), P07949 [V804L]; conditions: Compound concentration 1000.0 nM
[40] = biological target: Phosphorylase b kinase regulatory subunit alpha, liver isoform (Homo sapiens) (UniProt P46019); conditions: Compound concentration 1000.0 nM
[41] = biological target: MAP kinase-interacting serine/threonine-protein kinase 2 (Homo sapiens) (UniProt Q9HBH9); conditions: Compound concentration 1000.0 nM
[42] = biological target: Protein-tyrosine kinase 2-beta (Homo sapiens) (UniProt Q14289); conditions: Compound concentration 1000.0 nM
[43] = biological target: Calcium/calmodulin-dependent protein kinase kinase 1 (Homo sapiens) (UniProt Q8N5S9); conditions: Compound concentration 1000.0 nM
[44] = biological target: Dual specificity protein kinase CLK1 (Homo sapiens) (UniProt P49759); conditions: Compound concentration 1000.0 nM
Dual specificity protein kinase CLK1 (Homo sapiens), sequence (P49759 whole entry, looked up, canonical isoform): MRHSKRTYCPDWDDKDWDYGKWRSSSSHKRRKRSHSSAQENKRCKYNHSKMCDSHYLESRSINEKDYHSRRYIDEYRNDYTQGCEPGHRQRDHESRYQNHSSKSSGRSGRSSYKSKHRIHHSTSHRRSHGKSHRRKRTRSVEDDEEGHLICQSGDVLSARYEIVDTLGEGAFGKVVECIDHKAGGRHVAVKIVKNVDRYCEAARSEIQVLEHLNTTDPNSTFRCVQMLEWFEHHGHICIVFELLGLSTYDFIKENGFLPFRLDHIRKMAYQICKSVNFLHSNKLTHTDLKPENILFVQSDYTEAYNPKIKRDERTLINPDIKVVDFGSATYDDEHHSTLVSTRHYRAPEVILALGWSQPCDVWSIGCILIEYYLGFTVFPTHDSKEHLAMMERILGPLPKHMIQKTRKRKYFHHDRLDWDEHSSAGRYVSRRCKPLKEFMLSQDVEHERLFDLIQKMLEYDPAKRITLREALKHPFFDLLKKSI

[45] = biological target: Phosphatidylinositol 4,5-bisphosphate 3-kinase catalytic subunit beta isoform (Homo sapiens) (UniProt P42338); conditions: Compound concentration 1000.0 nM

Beta-3 adrenergic receptor (Homo sapiens), sequence (P13945 whole entry, looked up): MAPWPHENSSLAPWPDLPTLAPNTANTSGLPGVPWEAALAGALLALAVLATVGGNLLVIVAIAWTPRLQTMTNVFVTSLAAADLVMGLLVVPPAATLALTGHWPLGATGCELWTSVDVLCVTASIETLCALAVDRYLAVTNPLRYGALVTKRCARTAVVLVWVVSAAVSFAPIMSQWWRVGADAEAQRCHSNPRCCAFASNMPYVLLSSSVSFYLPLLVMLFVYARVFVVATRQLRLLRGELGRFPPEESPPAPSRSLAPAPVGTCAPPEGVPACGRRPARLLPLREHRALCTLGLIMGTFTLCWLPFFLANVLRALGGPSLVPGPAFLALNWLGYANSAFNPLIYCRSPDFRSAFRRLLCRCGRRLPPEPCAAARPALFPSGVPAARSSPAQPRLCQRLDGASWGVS

COc1cccc(CNC(=O)c2nc3scc(COCc4ccc(C(=O)O)cc4)c3c(=O)[nH]2)c1 [T-26c]
inactive: inhibition [1] 7.44% | residual activity [2] 83.6% | residual activity [3] 93.9% | residual activity [4] 63% | residual activity [5] 92.1% | residual activity [6] 98.7% | residual activity [7] 100% | residual activity [8] 100% | residual activity [9] 81.3% | residual activity [10] 100% | residual activity [11] 100% | residual activity [12] 72.2% | residual activity [13] 72.7% | residual activity [14] 93.8% | residual activity [15] 70.3% | residual activity [16] 100% | residual activity [17] 87.7% | residual activity [18] 100% | inhibition [19] -7.42% | residual activity [20] 59.7% | residual activity [21] 72.8% | residual activity [22] 96.6% | residual activity [23] 56.5% | residual activity [24] 100% | residual activity [25] 100% | inhibition [26] -9.07% | inhibition [27] -9.59% | residual activity [28] 67.3% | residual activity [29] 100% | residual activity [30] 100% | residual activity [31] 58.2% | residual activity [32] 100% | residual activity [33] 72.9% | residual activity [34] 94.8% | residual activity [35] 78.9% | residual activity [36] 100% | residual activity [37] 100% | residual activity [38] 57.5% | residual activity [39] 76.7% | residual activity [40] 83.8% | residual activity [41] 73.2% | residual activity [42] 85.3% | residual activity [43] 100% | residual activity [44] 95.6% | residual activity [45] 54.8%

Source: ChEMBL document CHEMBL4507300 (2021)
